Source: patent US6677370B2, “Compositions and uses of dictyostatin compounds” (Harbor Branch Oceanographic Institution, Inc., priority 2000, dated 2004)
Like-named read-outs stand apart in the source and are kept apart here.

Tests used:
[1] = test system: MES-SA human uterine carcinoma; experiment: Cytotoxicity, MTT assay, MES-SA; type: cell-based; details: read-out: IC50 (Std dev) MES-SA
Method: (§1) The cytotoxicity of dictyostatin-1 for various Taxol resistant and sensitive cell lines was compared to that of Taxol. The cell lines used were A549 human adenocarcinoma, MCF-7 human breast carcinoma, MCF-7ADR multi-drug resistant (Taxol resistant) human breast carcinoma, MES-SA human uterine carcinoma and MES-SA/DX5 Taxol resistant uterine carcinoma. All cell lines were maintained in Roswell Park Memorial Institute (RPMI) medium 1640 supplemented with 100 U/ml penicillin, […] streptomycin, 60 mg/ml 1-glutamine, 18 mM HEPES, 0.05 mg/ml gentamicin (Life Technologies, Gaithersburg, Md.) and 10% fetal bovine serum and cultured in plastic tissue culture flasks at 37° C. in humidified air containing 5% CO2. […] To spectrophotometrically quantitate formation of reduced formazan, plates are centrifuged (500×g, 10 minutes), culture fluids removed by aspiration, and 200 μl of acidified isopropanol (2 ml concentrated HC1/liter isopropanol) added per well. The absorbance of the resulting solutions is measured in a plate reader (Tecan Spectra SLT; TECAN U.S., Research Triangle Park, N.C.) at 570 nm and a 650 nm reference filter. […] The two standard drug controls (indicated above) are included in each assay as a check to monitor the drug sensitivity of each of the cell lines and IC50 values are determined for each drug-cell combination.

[2] = test system: PANC-1 human pancreatic adenocarcinoma cells; experiment: Immunofluorescent detection of effects on the microtubule matrix (anti-alpha-tubulin); type: cell-based; details: PANC-1 cells, 100 nM, overnight
Method: Dictyostatin-1 was evaluated as to its effects on the microtubule network of cells using anti-alpha-tubulin monoclonal antibodies.
PANC-1 human pancreatic adenocarcinoma cells were maintained in tissue culture media (TCM=Roswell Park Memorial Institute (RPMI) medium 1640 supplemented with 100 U/ml penicillin, […] streptomycin, 60 mg/ml 1-glutamine, 18 mM HEPES, 0.05 mg/ml gentamicin and 10% fetal bovine serum) and cultured in plastic culture flasks at 37° C. in humidified air containing 5% CO2. Stock cultures of PANC-1 cells were subcultured 1:10 every 3 to 4 days. On day 1, 1.25×10^5 PANC-1 cells were sub-cultured in TCM overnight at 37° C. in 5% CO2 on 22 mm^2 coverslips in 6-well microtiter plates. On day 2, TCM was removed and replaced with various concentrations of dictyostatin-1, or Taxol, in TCM or TCM without drug (control) and incubated overnight at 37° C. in 5% CO2. On day 3, TCM was removed and cells attached to coverslips were fixed with a 3.7% formaldehyde solution in Dulbecco's PBS for 10 minutes at room temperature. Cells were permeabilized with a 2% Triton X-100 solution, 2 ml per well, for 5 minutes at room temperature and washed twice in Dulbecco's PBS prior to staining. […]

[3] = test system: MCF-7ADR multi-drug resistant (Taxol resistant) human breast carcinoma; experiment: Cytotoxicity, MTT assay, MCF-7/ADR; type: cell-based; details: for IC50: Homo sapiens, NCI/ADR-RES, read-out: IC50 (Std dev) MCF-7/ADR; for Resistance, MCF-7/ADR relative to MCF-7: ratio of IC50 values, resistant vs sensitive line; for resistance of MCF-7ADR cells: resistant vs Taxol-sensitive counterpart
Method: (§2) The cytotoxicity of dictyostatin-1 for various Taxol resistant and sensitive cell lines was compared to that of Taxol. The cell lines used were A549 human adenocarcinoma, MCF-7 human breast carcinoma, MCF-7ADR multi-drug resistant (Taxol resistant) human breast carcinoma, MES-SA human uterine carcinoma and MES-SA/DX5 Taxol resistant uterine carcinoma. All cell lines were maintained in Roswell Park Memorial Institute (RPMI) medium 1640 supplemented with 100 U/ml penicillin, […] streptomycin, 60 mg/ml 1-glutamine, 18 mM HEPES, 0.05 mg/ml gentamicin (Life Technologies, Gaithersburg, Md.) and 10% fetal bovine serum and cultured in plastic tissue culture flasks at 37° C. in humidified air containing 5% CO2. Stock cultures of cells were subcultured 1:10 every 3 to 4 days. To assess the antiproliferative effects of agents against the cells, 200 μl cultures (96-well tissue culture plates, Nunc, Denmark) were established at 1×10^5 cells/mL in TCM or TCM containing the test agent at 0.03-5.0 μg/ml. After 72 -h exposures, the effects of dictyostatin-1 and Taxol on cell proliferation were quantitated and IC50 values determined as follows: 75 μl of warm growth media containing 5 mg/ml 3-[4,5-dimethylthiazol-2-yl]-2,5-diphenyltetrazolium bromide (MTT) (M. C. Alley et al. (1988) Cancer Res. 48:589) was added to each well, cultures returned to the incubator, and left undisturbed for 3 hours. To spectrophotometrically quantitate formation of reduced formazan, plates are centrifuged (500×g, 10 minutes), culture fluids removed by aspiration, and 200 μl of acidified isopropanol (2 ml concentrated HC1/liter isopropanol) added per well. The absorbance of the resulting solutions is measured in a plate reader (Tecan Spectra SLT; TECAN U.S., Research Triangle Park, N.C.) at 570 nm and a 650 nm reference filter. The absorbance of tests wells is divided by the absorbance of drug-free wells, and the concentration of agent that results in 50% of the absorbance of untreated cultures (IC50) is determined by linear regression of logit-transformed data (D. J. Finney, Statistical Method in Biological Assay, Third Ed., pp.316-348, Charles Griffin Co., London, 1978). A linear relationship between tumor cell number and formazan production has been routinely observed over the range of cell densities observed in these experiments. The two standard drug controls (indicated above) are included in each assay as a check to monitor the drug sensitivity of each of the cell lines and IC50 values are determined for each drug-cell combination.

[4] = test system: MES-SA/DX5 Taxol resistant uterine carcinoma; experiment: Cytotoxicity, MTT assay, MES-SA/DX5; type: cell-based, human; details: for IC50: Homo sapiens, read-out: IC50 (Std dev) MES-SA/DX5; for Resistance, MES-SA/DX5 relative to MES-SA: ratio of IC50 values, resistant vs sensitive line; for resistance of MES-SA/DX5 cells: resistant vs Taxol-sensitive counterpart
Method: as §2

[5] = test system: purified bovine brain tubulin; experiment: Polymerization of purified tubulin (optical density at 350 nm); type: biochemical; details: 10 μM
Method: Polymerization of purified bovine brain tubulin (Cytoskeleton Inc., Denver, Co.) was followed by changes in the optical density of tubulin solutions at 350 nm in a Hitachi U-3010 spectrophotometer equipped with a SPR-10 electronic thermostatted cell holder. Stock solutions of tubulin were diluted on ice in G-PEM buffer (1 mM GTP, 80 mM PIPES (piperazine-N,N′-bis(2-ethanesulfonic acid]sesquisodium salt), 1 mM EGTA (ethylene glycol-bis(b-amine ethyl ether) N,N,N,N′-tetra acetic acid), 0.5 mM magnesium chloride; pH 6.8) to a final concentration of 1 mg/ml. The instrument was zeroed on this solution at 4° C. Dictyostatin-1, was then added to the tubulin to a final concentration of 10 μM and quickly mixed. The polymerization was monitored by observing light scattering changes in optical density at 350 nm using the spectrophotometer. The temperature was varied for a time period of […] beginning at 4° C. for 1 minute, then linearly ramping to 35° C. over 30 minutes, with a hold of one minute at 35° C., then linearly decreasing to 4° C. over 15 minutes, with this temperature being maintained for an additional 15 minutes. Absorbance was measured and recorded over the entire time period.

[6] = test system: MCF-7 human breast carcinoma; experiment: Cytotoxicity, MTT assay, MCF-7; type: cell-based; details: read-out: IC50 (Std dev) MCF-7
Method: as §1

[7] = test system: PANC-1 human pancreatic adenoma cells; experiment: Cell cycle progression of PANC-1 cells (propidium iodide flow cytometry); type: cell-based; details: 100 nM, 24 hours; for percentage of cells in S phase: untreated control 5.8%; for percentage of cells in G2/M phase: untreated control 34.4%; for percentage of cells comprising the G1 population: untreated control 59.8%
Method: Cell cycle studies were initiated in order to pinpoint a specific phase within the cell cycle in which dictyostatin-1 was exerting its antiproliferative effect. PANC-1 human pancreatic adenoma cells were used as cell cycle targets to compare the effects on perturbation of the cell cycle of dictyostatin-1 to the known mitotic spindle inhibitor […]. Cell cycle analyses were performed as follows: PANC-1 cells were incubated at 37° C. in 5% CO2 in air in the presence or absence of varying concentrations of dictyostatin-1 or Taxol for 24 hours.
Cells were harvested, fixed in ethanol and stained with 0.02 mg/ml of propidium iodide (P.I.) together with 0.1 mg/ml of RNAse A. This procedure permeabilizes cells and allows entry of P.I. to stain DNA (propidium iodide also stains double stranded RNA, so RNAse is included in the preparation to exclude this possibility). Stained preparations were analyzed on a Coulter EPICS ELITE with 488 nm excitation. Fluorescence measurements and resulting DNA histograms were collected from at least 3,000 P.I. stained cells at an emission wavelength of 690 nm. Raw histogram data was further analyzed using a cell cycle analysis program (Multicycle, Phoenix Flow Systems).

[8] = test system: A549 human adenocarcinoma; experiment: Cytotoxicity, MTT assay, A549; type: cell-based; details: read-out: IC50 (Std dev) A549
Method: as §1

cellular proliferation = details: literature; cited from earlier work

SMILES	effect on microtubule network (bundling) [2]	Resistance, MCF-7/ADR relative to MCF-7 [3] [×]	resistance of MCF-7ADR cells [3] [fold]	Resistance, MES-SA/DX5 relative to MES-SA [4] [×]	resistance of MES-SA/DX5 cells [4] [fold]	percentage of cells in S phase [7] [%]	percentage of cells in G2/M phase [7] [%]	percentage of cells comprising the G1 population [7] [%]	IC50 values, inhibition of cellular proliferation (cellular proliferation)	other results
C=C/C=C\C(C)C1OC(=O)/C=C\C=C\C(C)C(O)CC(O)/C=C\C(C)C(O)C(C)CC(C)CCC(O)C1C (stereo not drawn) [Dictyostatin-1]	extensive microtubule bundling resulting in almost complete depletion of non-bundled microtubular material in the cytoplasm	13	13	3	3	30	35	36		IC50 ([1]; 72 h): 4.1 nM; IC50 ([3]; 72 h): 20 nM; IC50 ([4]; MES-SA/Dx5, 72 h): 11 nM; stability of polymerized tubulin on cooling ([5]; temperature decreased from 35° C. to 4° C.): did not substantially depolymerize upon reduction of the temperature; induction of tubulin polymerization ([5]; tubulin 1 mg/ml, temperature ramp 4° C. to 35° C.): induced tubulin polymerization with a maximum polymerization level reached at 35 °C; IC50 ([6]; MCF7, 72 h): 1.5 nM; IC50 ([8]; A549, 72 h): 0.95 nM
C=C1C[C@H](C)C[C@@H]2CC=C[C@@H](C/C=C\C(=O)O[C@H]([C@@H](O)/C=C/[C@@H]3CC(C)=CCO3)C[C@@H]3O[C@H]3[C@@H](O)C1)O2 [Laulimalide]									low nanomolar range	
CC(=O)O[C@H]1C(=O)[C@@]2(C)[C@H]([C@H](OC(=O)c3ccccc3)[C@]3(O)C[C@H](OC(=O)[C@H](O)[C@@H](NC(=O)c4ccccc4)c4ccccc4)C(C)=C1C3(C)C)[C@]1(OC(C)=O)CO[C@@H]1C[C@@H]2O [Taxol]	characteristic formation of microtubular “bundles” but also a substantial amount of “non-bundled” microtubular material still remained in the cytoplasm	1332	1332	501	501	27	47	26		IC50 ([1]; 72-h exposure, MTT): 3.3 nM; IC50 ([3]; 72-h exposure, MTT): 3330 nM; IC50 ([4]; MES-SA/Dx5, 72-h exposure, MTT): 1650 nM; IC50 ([6]; MCF7, 72-h exposure, MTT): 2.5 nM; IC50 ([8]; A549, 72-h exposure, MTT): 5.13 nM
C=C1CC(C)C[C@@H]2CC=C[C@@H](C/C=C\C(=O)O[C@@H]3C[C@H](O[C@@H]3/C=C/[C@H]3CC(C)=CCO3)[C@H](O)C(O)C1)O2 (stereo partly drawn) [isolaulimalide]									low micromolar range	
